Data as given in patent US20080255215A1, “Combinations of Alkylalkanolamines and Alkylbisalkanolamines for Antimicrobial Compositions” (priority 2005, published 2008).

How the values were obtained:
[1] = tested on: Pseudomonas aerguinosa (ATCC 15442); assay: Kinetic absorbance assay of bacterial growth (maximum growth slope), amines and amine pairs with KATHON 886MW biocide; assay type: cell-based; conditions: KATHON 100 ppm; for Maximum Growth Slope: pH 8.5
Experimental: A kinetic assay was run via absorbance measurements in a 384 well micro-titer plate with 75 μL) plate volume. Pseudomonas aerguinosa (ATCC 15442) was used as the inoculum for this kinetic assay. The organism was grown overnight in Trypticase Soy broth, pelleted, and resuspended in new medium at half its original density. The final inoculum was determined from plate counts on TSA plates spread at the time of use as 8.0×10E10 CFU/mL Each well of the microtiter plate (well volume=75 μL) was filled with 25 μL of a buffered aqueous solution of the amine being tested at the concentration necessary to yield the desired test concentration after dilution, enough Tris buffer to keep the well pH at 8.5, 25 μL of a biocide solution, and 25 μL reconstituted bacterial culture. The pH was adjusted to 8.5 with the buffer. The biocide was KATHON 886MW. The following amines were tested: butylaminoethanol (BAE, a compound according to formula I), butyldiethanolamine (BDEA, a compound according to formula II), octylaminoethanol (OAE, a compound according to formula I), and octyldiethanolamine (ODEA, a compound according to formula II), all at 99% purity): […]
The columns were laid out as follows:
The experiment ran for 20 hours with absorbance measurements taken once every 15 minutes. The data was processed by taking 10 point maximum growth slopes (milliOD per minute) after a 3 hour delay. The results of the above series are shown in FIG. 1, and selected data are tabulated in Table 2, in which biocide (KATHON) was used at a 100 ppm level.

[2] = tested on: Pseudomonas aerguinosa (ATCC 27853); assay: End-point absorbance assay of bacterial growth in 384 well microtiter plate, single amines with KATHON 886MW biocide; assay type: cell-based; conditions: for Effectiveness as an enhancer for the biocide: amine 400 ppm with KATHON 886MW up to 50 ppm, assessment in words; for End-point absorbance (660 nm): amine 400 ppm, 48 hours growth, pH 8.5
Experimental: A kinetic assay of bacterial growth in a 384 well microtiter plate was monitored by absorbance at 660 nm. The bacteria was Pseudomonas aerguinosa (ATCC 27853). The organism was grown overnight in Trypticase Soy Broth (TSB), pelleted, and resuspended in new medium at half its original density. The final inoculum was determined from plate counts on Trypticase Soy Agar (TSA) plates spread at the time of use as 4.5×10E10 CFU/mL. Each well of the microtiter plate (well volume=75 μL) was filled with 25 μL of a buffered aqueous solution of the amine being tested at the concentration necessary to yield the desired test concentration after dilution, enough Tris buffer to keep the well pH at 8.5, 25 μL of a biocide solution, and 25 μL reconstituted bacterial culture. The biocide solution and bacterial inoculum were mixed with TSB nutrient. The biocide utilized was KATHON 886MW (supplied by Rohm & Haas Company, Springhouse, Pa.). KATHON 886 MW is a 15% active solution of ⅔ CMIT (5-chloro-2-methyl-4-isothiazolin-3-one) and ⅓ MIT (2-methyl-4-isothiazolin-3-one). The experimental assessment of bacterial growth was made through an end-point absorbance measurement taken after 48 hours of growth in the various media. The concentration of the 4 different amines was 400 ppm. The concentration of the biocide was an experimental variable. The amines employed in this experiment were decyloxypropylaminopropylamine (DOPAPA), octylaminoethanol (OAE, a compound according to formula I), octyldiethanolamine (ODEA, a compound according to formula II), and dicyclohexylamine (DCHA). All absorbance values are the averages of at least three replicates.

[3] = amine 2000 ppm, 10 point maximum slope after 3 hour delay

Row | Structure (SMILES) | Comparative effectiveness (runs of Table 2) ([1]; assessment in words) | Maximum Growth Slope ([1]; amine 1000 ppm) [MilliOD/min] | Maximum Growth Slope [1, 3] [MilliOD/min] | Effectiveness as an enhancer for the biocide [2] | End-point absorbance (660 nm) ([2]; KATHON 886MW loading 0 ppm) | End-point absorbance (660 nm) ([2]; KATHON 886MW loading 12 ppm) | End-point absorbance (660 nm) ([2]; KATHON 886MW loading 25 ppm) | End-point absorbance (660 nm) ([2]; KATHON 886MW loading 50 ppm) | Maximum Growth Slope ([1]; amine 250 ppm) [MilliOD/min] | Maximum Growth Slope ([1]; amine 500 ppm) [MilliOD/min]
1 | CCCCNCCO [BAE, butylaminoethanol] | more effective than BDEA alone | 0.9 | 0.4 |  |  |  |  |  |  | 
2 | CCCCN(CCO)CCO [BDEA, butyldiethanolamine] |  | 1.3 | 0.8 |  |  |  |  |  |  | 
3 | C1CCC(NC2CCCCC2)CC1 [DCHA, dicyclohexylamine, reference compound] |  |  |  | marginal enhancer | 0.14 | 0.14 | 0.10 | 0.07 |  | 
4 | CCCCCCCCCCOCCCNCCCN [DOPAPA, decyloxypropylaminopropylamine, reference compound] |  |  |  | weak or ineffective | app. 0.3 | app. 0.3 | app. 0.3 | app. 0.3 |  | 
5 | CCCCCCCCNCCO [OAE, octylaminoethanol] |  |  |  | excellent enhancer | 0 | 0 | 0 | 0 | 0.4 | −0.1
6 | CCCCCCCCN(CCO)CCO [ODEA, octyldiethanolamine] |  |  |  | moderately effective enhancer | 0.12 | 0.08 | 0.08 | 0.03 | 0.6 | 0.4
